In US10800766B2, “Quinoline alkenes as cytoprotective agents” (priority 2015, dated 2020):

Key:
[1] = test system: CSM14.1 neuronal cells; assay: Cell survival assay (thapsigargin-induced cell death, CELLTITER-GLO luminescence); format: cell-based; conditions: CSM14.1 cells, compound 2 hrs before about 15 μM thapsigargin, overnight (about 16 to 24 hrs), cell viability
Protocol: CSM14.1 neuronal cells were maintained in Complete Medium at 32° C.; wherein the Complete Medium contained Dulbecco's modified eagle medium (DMEM) with 10% fetal bovine serum (FSB), 1% L-glutamine, 100 IU/mL penicillin, and 100 μg/mL streptomycin. The cells were recovered from cultures by trypsinization and then seeded in 384 well plates (Greiner #781098) at a concentration of 1,000 cells/well in 20 μL of DMEM Assay Medium, wherein the DMEM Assay Medium contained 2% FBS, 100 IU/mL penicillin, and 100 μg/mL streptomycin. Seeding was performed using a MultiDrop Combi reagent broadcaster. The plates were incubated overnight at 32° C. A test compound was prepared by 2-fold serial dilution in 100% DMSO using a BIOMEK® 2000 liquid handler (Beckman Coulter). A dose-response curve containing 10 concentrations of the test compound was obtained. Using a BIOMEK® FX liquid handler (Beckman Coulter), 2.5 μL of the test compound was transferred from the 100% DMSO serial dilution plate to an intermediate plate containing 47.5 μL of DMEM Assay Medium containing 2% FBS, 100 IU/mL penicillin, and 100 μg/mL streptomycin and mixed. To reduce or eliminate the interference from the compound's precipitation, 6 μL of the diluted compound was immediately transferred to the assay plate to achieve a high compound concentration of 100 μM in 99% DMEM Assay Medium and 1% DMSO. After the assay plates were incubated for 2 hrs, 4 μL of 112.5 μM thapsigargin (TG) (DMSO stock diluted into Assay TC Medium) was dispensed into each testing well with a MultiDrop Combi reagent broadcaster for a final concentration of about 15 μM TG. The tissue culture media (4 μL) containing vehicle only was transferred manually to each control cell using a 16 channel electronic pipette. After the plates were incubated overnight (about 16 to 24 hrs), CELLTITER-GLO® (Promega) (16 μL) was added to all wells and luminescence was measured. High luminescence indicates cell survival. The biological results are summarized in Table 1 where A represents a cell viability EC50 less than 1 μM and B represents a value greater than 1 μM and less than 10 μM.

[2] = test system: Human embryonic kidney (HEK293) cells; Mouse neuroblastoma (N2a) cells; assay: Cell rescue assay: protection against thapsigargin (TG)-induced cell-death (ALAMARBLUE); format: cell-based; conditions: compound 20 μM, 2 hrs before thapsigargin (15 μM for HEK293 cells, 1 μM for N2a cells), 24 hrs; viability as % RFU compared to control
Protocol: Protection against Thapsigargin (TG)-induced Cell-death. Human embryonic kidney (HEK293) cells were grown in Dulbecco's Modified Eagle's Medium (DMEM) with 10% FBS and 1% antibiotic antimycotic solution (ABAM). Mouse neuroblastoma (N2a) cells were grown in 1:1 DMEM:OPTI-MEM® with 5% FBS and 1% ABAM. All cells were grown in 10% CO2 in a humidified environment of the incubator. Cells grown in 96-well plates were exposed to a test compound (20 μM) for 2 hrs before addition of thapsigargin (15 μM for HEK293 cells and 1 μM for N2a cells) to induce ER stress. After incubation in cell-culture incubator for 24 hrs, ALAMARBLUE® regent (10% v/v) was added to the wells. Fluorescence reading was taken 2 hrs after the addition of the ALAMARBLUE® regent. Cell-viability was calculated as a percentage of relative fluorescence unit (RFU) compared to control. […] The biological results are summarized in Table 2, where each compound was tested at 20 μM and where A represents a viability greater than 50%, B represents a viability greater than 10% and less than 50%, C represents a value below 10%.

[3] = test system: Human SH-SY5Y cells; assay: Cell rescue assay: protection against β-amyloid-induced cell toxicity; format: cell-based; conditions: 7.5 uM compound, AB1-42 at 10 uM, 4 days, OD at 490 nm
Protocol: Protection against β-amyloid-induced cell toxicity. Chonpathompikunlert et al. Eu. J. Pharmacol. 2011, 650, 544-549. Human SH-SY5Y cells are suspended in media containing 2% FBS and 2× Gentamicin. Transfer 100 ul/well culture to 96-well plate (20,000 cells/well; passage #5) and incubate overnight. Prepare compound samples at 30 uM. Add 50 ul of the samples to the cells [[…]] and incubate 3 hours. Make stock of 40 uM AB1-42 peptide in assay media. Transfer 50 ul/well to cells/compounds in assay plate. The final assay volume is 200 ul/well, containing 2% FBS, 2× Gentamicin, 7.5 uM compound and AB1-42 at 10 uM. Incubate for 4 days then add 20 ul of Promega Substrate Cell Titer 96 Aqueous One Solution Reagent to each well. Incubate 37° C. and read OD at 490 nm. The results are summarized in Table 3, where A represents a value greater than 50% cell rescue, B represents a value greater than 10% and less than 50% cell rescue, and C represents a value greater than 1% and less than 10% cell rescue.

[4] = target: T1, SERCA (microsomal preparations from HEK 293 cells) (Homo sapiens, UniProt P16615); assay: Ca-ATPase assay (NADH-linked, enzyme-coupled ATPase assay); format: biochemical; conditions: ATP hydrolysis rate over a range of calcium concentrations, Vmax by fit to Hill function, relative to controls
T1 construct: endogenous in cells; host or cells: HEK 293 cells (microsomal preparation)
Protocol: A Ca-ATPase assay was performed using microsomal preparations from HEK 293 cells at a series of calcium concentrations corresponding to the physiological range, relative to controls. The ATP hydrolysis rate was measured over a range of calcium concentrations in the presence of test compounds using an NADH-linked, enzyme-coupled ATPase assay adapted for 96-well microplates, with Vmax determined by fitting the ATPase calcium-dependence to the Hill function. Each well contained 2 μg or 7 μg of SR vesicles (optimized for skeletal or cardiac SR, respectively), 50 mM MOPS (pH 7.0), 100 mM KCl, 5 mM MgCl2, 1 mM EGTA, 0.2 mM NADH, 1 mM phosphoenol pyruvate, 5 IU pyruvate kinase, 5 IU lactate dehydrogenase, and 3.5 μg/mL A23187 (a calcium ionophore). CaCl2 was added to set free [Ca^2+] to the specific values. The assay was started upon addition of ATP at a final concentration of 5 mM, and read in a SpectraMax Plus microplate spectrophotometer. The results are summarized in Table 4, where A represents an increase in SERCA Vmax greater than 50% and B represents a value greater than 10% and less than 50%.

[5] = test system: Ob/ob mice; assay: Effect of a SERCA agonist on the level of blood glucose; format: in vivo, mouse; conditions: 50 mg/kg i.p. once a day for 5 days, fasting glucose at baseline and 4 days after administration
Protocol: Ob/ob mice (10 weeks old, n=7) were intraperitoneally (i.p.) injected with 100 μL of a solution containing 0 (vehicle) or 50 mg/kg of a test compound once a day for a total of 5 days. Fasting glucose was measured at baseline and 4 days after the administration of the test compound. Glucose levels were measured in blood samples drawn from the tail vein using a handheld glucose sensor. Compound effects on blood glucose are shown in Table 5 where A represents a 10-20% reduction in blood glucose, B represents a 21-30% reduction in blood glucose, and C represents a greater than 30% reduction in blood glucose levels.

T1 sequence (P16615 whole entry): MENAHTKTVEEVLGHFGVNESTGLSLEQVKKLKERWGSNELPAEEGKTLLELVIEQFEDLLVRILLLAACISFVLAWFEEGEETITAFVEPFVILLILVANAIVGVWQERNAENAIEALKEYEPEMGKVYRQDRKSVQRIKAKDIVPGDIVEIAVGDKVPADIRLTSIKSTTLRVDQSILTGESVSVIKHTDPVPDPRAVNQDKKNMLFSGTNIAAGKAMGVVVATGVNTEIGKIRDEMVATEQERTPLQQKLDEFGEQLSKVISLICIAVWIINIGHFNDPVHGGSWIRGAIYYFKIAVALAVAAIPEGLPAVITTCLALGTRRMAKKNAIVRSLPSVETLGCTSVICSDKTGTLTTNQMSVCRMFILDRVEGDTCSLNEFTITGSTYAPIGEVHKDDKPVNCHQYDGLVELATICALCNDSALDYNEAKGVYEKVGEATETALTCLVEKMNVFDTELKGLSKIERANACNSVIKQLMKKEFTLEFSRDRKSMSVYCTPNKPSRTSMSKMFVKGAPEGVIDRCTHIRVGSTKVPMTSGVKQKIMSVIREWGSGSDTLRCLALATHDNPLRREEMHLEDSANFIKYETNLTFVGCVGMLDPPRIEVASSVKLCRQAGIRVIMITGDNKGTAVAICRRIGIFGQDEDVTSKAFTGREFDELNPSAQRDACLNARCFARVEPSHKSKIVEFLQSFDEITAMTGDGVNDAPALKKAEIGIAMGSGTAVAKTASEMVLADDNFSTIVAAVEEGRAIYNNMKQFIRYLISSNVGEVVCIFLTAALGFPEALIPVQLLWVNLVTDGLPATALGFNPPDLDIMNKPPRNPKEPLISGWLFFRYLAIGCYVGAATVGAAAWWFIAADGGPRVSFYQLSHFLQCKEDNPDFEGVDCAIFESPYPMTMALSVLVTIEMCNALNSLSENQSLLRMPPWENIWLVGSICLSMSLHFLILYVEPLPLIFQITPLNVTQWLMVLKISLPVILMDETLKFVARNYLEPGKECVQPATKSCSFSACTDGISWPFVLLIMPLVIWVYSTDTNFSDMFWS

Compound | EC50 [1] | Cell Survival % [2] | Cell Survival % (cell rescue) [3] | SERCA Vmax Increase [4] | Glucose level reduction [5]
Cc1ccc2cccc(/C=C/c3ccc(OC(C)C)cc3)c2n1 [A1, (E)-8-(4-Isopropoxystyryl)-2-methylquinoline] | < 1000 nM | A (A represents a viability greater than 50%) | A (A represents a value greater than 50% cell rescue) | A (A represents an increase in SERCA Vmax greater than 50%) | C (C represents a greater than 30% reduction in blood glucose levels)
Cc1ccc2cccc(/C=C/c3cc(Br)cs3)c2n1 [A2, (E)-8-(2-(4-Bromothiophen-2-yl)vinyl)-2-methylquinoline] | < 1000 nM | A (A represents a viability greater than 50%) | B (B represents a value greater than 10% and less than 50% cell rescue) | A (A represents an increase in SERCA Vmax greater than 50%) | B (B represents a 21-30% reduction in blood glucose)
Cc1ccc2cccc(/C=C/c3ccc(Br)s3)c2n1 [A3, (E)-8-(2-(5-Bromothiophen-2-yl)vinyl)-2-methylquinoline] | 1000 to 10000 nM | B (B represents a viability greater than 10% and less than 50%) | C (C represents a value greater than 1% and less than 10% cell rescue) | A (A represents an increase in SERCA Vmax greater than 50%) | B (B represents a 21-30% reduction in blood glucose)
Cc1ccc2cccc(/C=C/c3ccc(Cl)cc3)c2n1 [A4, (E)-8-(4-Chlorostyryl)-2-methylquinoline] | < 1000 nM | C (C represents a value below 10%) | B (B represents a value greater than 10% and less than 50% cell rescue) | B (B represents a value greater than 10% and less than 50%) | A (A represents a 10-20% reduction in blood glucose)
Cc1ccc2cccc(/C=C/c3cccc(C(F)(F)F)c3)c2n1 [A5, (E)-8-(3-(Trifluoromethyl)styryl)-2-methylquinoline] | 1000 to 10000 nM | B (B represents a viability greater than 10% and less than 50%) | B (B represents a value greater than 10% and less than 50% cell rescue) | A (A represents an increase in SERCA Vmax greater than 50%) | B (B represents a 21-30% reduction in blood glucose)
Cc1ccc2cccc(/C=C/c3cccc(F)c3)c2n1 [A6, (E)-8-(3-Fluorostyryl)-2-methylquinoline] | 1000 to 10000 nM | B (B represents a viability greater than 10% and less than 50%) | A (A represents a value greater than 50% cell rescue) | B (B represents a value greater than 10% and less than 50%) | A (A represents a 10-20% reduction in blood glucose)
